Test system: RL CD19+ tumor cells
Experiment: Cytolytic function: co-culture of anti-CD19 CAR T cells with RL CD19+ tumor cells
Format: cell-based
Settings: E:T 1:1
Description: To do so, CAR T cells were plated on ploy-D-lysine plates. CD19+ tumor cells transduced with IncuCyte® NucLight Red (Essen BioScience Inc.) were then added to the CAR T cells in addition to Compound C or vehicle control. Tumor cell number was measured over multiple days.
Treatment with CAR T cells in combination with either immunomodulatory compound led to lower tumor cell numbers than did CAR T cells alone or the compounds alone.

O=C1CC[C@H](N2Cc3c(OCc4ccc(CN5CCOCC5)cc4)cccc3C2=O)C(=O)N1 [Compound 2, (S)-3-[4-(4-morpholin-4-ylmethyl-benzyloxy)-1-oxo-1,3-dihydro-isoindol-2-yl]-piperidine-2,6-dione, reference compound]
RL tumor cell number vs CAR T cells alone or compound alone (compound at 0.01 μM with anti-CD19 CAR T cells): lower
RL tumor cell number vs CAR T cells alone or compound alone (compound at 0.1 μM with anti-CD19 CAR T cells): lower

— US20240197871A1, “COMBINATION OF A CAR T CELL THERAPY AND AN IMMUNOMODULATORY COMPOUND FOR TREATMENT OF LYMPHOMA” (Juno Therapeutics, Inc., priority 2021, published 2024)
